# Experimental data published in ChEMBL document CHEMBL2073865 (Drug Metab Dispos, 2004).
# Structures can show the parent of a compound that is named as a salt.
# Key:
# Assay type in all cases: functional, cell-based
# [1] = molecular target: T1, ATP-dependent translocase ABCB1 (Homo sapiens, UniProt P08183); experiment: TP_TRANSPORTER: transepithelial transport of erythromycin in the presence of Hippurate at 2mM in MDR1-expressing MDCK cells; details: dog, 2000 µM
# [2] = molecular target: T1, ATP-dependent translocase ABCB1; experiment: TP_TRANSPORTER: transepithelial transport of erythromycin in the presence of 3-Carboxy-4-methyl-5-propyl-2-furanpropanoic acid at 500uM and 1mM in MDR1-expressing MDCK cells; details: dog
# [3] = molecular target: T1, ATP-dependent translocase ABCB1; experiment: TP_TRANSPORTER: transepithelial transport of erythromycin in the presence of Indoxyl sulfate at 1mM in MDR1-expressing MDCK cells; details: dog, 1000 µM
# T1 sequence (P08183 whole entry): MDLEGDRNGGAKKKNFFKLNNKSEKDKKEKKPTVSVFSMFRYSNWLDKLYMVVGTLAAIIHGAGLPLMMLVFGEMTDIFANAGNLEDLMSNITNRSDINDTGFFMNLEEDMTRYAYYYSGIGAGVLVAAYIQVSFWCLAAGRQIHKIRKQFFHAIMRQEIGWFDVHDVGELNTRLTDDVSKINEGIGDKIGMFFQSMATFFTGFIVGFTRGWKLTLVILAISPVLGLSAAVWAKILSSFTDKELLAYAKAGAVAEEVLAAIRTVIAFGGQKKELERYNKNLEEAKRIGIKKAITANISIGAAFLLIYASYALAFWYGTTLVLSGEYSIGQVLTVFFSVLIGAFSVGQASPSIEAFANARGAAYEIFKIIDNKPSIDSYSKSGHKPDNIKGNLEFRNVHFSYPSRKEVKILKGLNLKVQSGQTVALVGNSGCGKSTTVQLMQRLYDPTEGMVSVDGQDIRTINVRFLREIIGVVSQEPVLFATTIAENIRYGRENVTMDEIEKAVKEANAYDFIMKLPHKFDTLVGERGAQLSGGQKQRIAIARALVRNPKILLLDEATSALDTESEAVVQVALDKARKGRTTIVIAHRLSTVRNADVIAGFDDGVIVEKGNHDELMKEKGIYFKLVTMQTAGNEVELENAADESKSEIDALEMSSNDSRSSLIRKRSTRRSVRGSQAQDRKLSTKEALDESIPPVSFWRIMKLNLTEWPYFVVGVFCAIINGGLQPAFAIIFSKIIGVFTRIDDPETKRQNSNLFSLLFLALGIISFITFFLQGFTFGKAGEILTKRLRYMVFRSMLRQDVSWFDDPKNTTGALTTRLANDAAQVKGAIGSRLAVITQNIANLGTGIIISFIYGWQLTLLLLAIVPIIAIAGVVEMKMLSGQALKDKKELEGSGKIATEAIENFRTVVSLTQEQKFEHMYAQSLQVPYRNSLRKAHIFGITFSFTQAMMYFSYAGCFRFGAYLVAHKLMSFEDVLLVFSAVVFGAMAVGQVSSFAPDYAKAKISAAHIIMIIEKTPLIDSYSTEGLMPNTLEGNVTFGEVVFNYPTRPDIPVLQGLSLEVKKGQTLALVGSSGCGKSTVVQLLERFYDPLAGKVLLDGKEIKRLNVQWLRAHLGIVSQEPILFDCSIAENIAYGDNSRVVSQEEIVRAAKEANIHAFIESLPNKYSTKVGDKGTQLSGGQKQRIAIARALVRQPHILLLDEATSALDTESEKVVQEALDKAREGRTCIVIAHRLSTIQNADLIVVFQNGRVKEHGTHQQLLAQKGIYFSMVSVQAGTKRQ
structure (smiles),measurement,setting,value
O=C(O)CNC(=O)c1ccccc1 [HIPPURIC ACID],Activity,[1],is not an inhibitor [-]
CCCc1oc(CCC(=O)O)c(C(=O)O)c1C,Activity,[2],is not an inhibitor [-]
O=S(=O)(O)Oc1c[nH]c2ccccc12 [INDOXYL SULFATE],Activity,[3],is not an inhibitor [-]
